These are literature values, as cited in patent US20070032536A1, “Compounds, compositions and methods” (priority 2003, published 2007).

As usually defined, the GI50 is the concentration that inhibits growth by half.

SMILES strings stand for the structures.

The series concerns A549 cells. The note with it: data provided by National Cancer Institute, Developmental Therapeutic Program.
In the case of `O=c1[nH]cc(F)c(=O)[nH]1` [5-fluorouracil], the GI50 was 1000 nM.
Consider `COc1cccc2c1C(=O)c1c(O)c3c(c(O)c1C2=O)C[C@@](O)(C(=O)CO)C[C@@H]3O[C@H]1C[C@H](N)[C@H](O)[C@H](C)O1` [doxorubicin], for which the concentration for 50% growth inhibition (GI50) was 63 nM.
Take `NC(=O)NO` [hydroxyurea]: the concentration for 50% growth inhibition (GI50) was 500000 nM.
On to `CC(=O)O[C@H]1C(=O)[C@@]2(C)[C@H]([C@H](OC(=O)c3ccccc3)[C@]3(O)C[C@H](OC(=O)[C@H](O)[C@@H](NC(=O)c4ccccc4)c4ccccc4)C(C)=C1C3(C)C)[C@]1(OC(C)=O)CO[C@@H]1C[C@@H]2O` [paclitaxel], for which the GI50 was 4 nM.
